{"source": "patent US5908862A", "about": "“Water-miscible esters of mono--and diglycerides having antibacterial activity and their use in inhibiting infection” (priority 1996, dated 1999)", "system": "human respiratory syncytial virus (RSV) in LLC-MK2 cells", "experiment": "RSV inhibition assay in LLC-MK2 cells (immunoperoxidase), PBS", "type": "cell-based", "settings": "Carrageenan's IC50; Carrageenan alone", "procedure": "Additional studies were performed to determine the synergistic anti-viral effects of diacetyltartaric acid esters of mono- and diglycerides, lipophilic monoglycerides (MG) and carrageenan. These studies were carried out using […] and PBS as the diluent. The RSV inhibition assay semi-quantitatively determines the ability of a test material (antibody or other bioactive compound) to inhibit the infection of monkey kidney cells (LLC-MK2) by human respiratory syncytial virus (RSV). Infected cells are identified using an immunoperoxidase method and counted. The method is performed in a microtiter format and is described briefly below:\nLLC-MK2 rhesus monkey kidney cells were obtained from the American Type Culture Collection and were cultured in Eagles […] essential medium (EMEM) supplemented with 10% fetal bovine serum. […] Plates were then rinsed as above with PBS/CEA, and the number of stained RSV-infected cells (IC) per well determined using an inverted microscope. The number of ICs' in triplicate wells was compared with the number of ICs' of virus control wells (mean of 9)and the percent inhibition (PI) calculated; [PI=1.0-[Mean ICs' per well of test sample/Mean ICs' per well of virus control]. […]", "data": [{"substance": "Carrageenan", "values": [{"measurement": "Enhancement Factor", "result": 1.0}]}]}
